Test results: patent publication US20240140957A1, “BRIDGED COMPOUNDS AS KRAS G12D INHIBITOR AND DEGRADER AND THE USE THEREOF” (BeiGene Switzerland GmbH, priority 2021, published 2024)

These compounds were tested against GDP-loaded KRAS G12D (Homo sapiens, UniProt P01116, G12D) (assay: KRAS G12D Probe Displacement Assay). Conditions: KRAS G12D 0.5 nM, biotinylated probe 2 4 nM; Table 6 letters; read-out: KRAS G12D Probe Displacement Assay IC50 (class).
Type: binding

Sequence of GDP-loaded KRAS G12D (P01116 1-188 isoform P01116-2 G12D): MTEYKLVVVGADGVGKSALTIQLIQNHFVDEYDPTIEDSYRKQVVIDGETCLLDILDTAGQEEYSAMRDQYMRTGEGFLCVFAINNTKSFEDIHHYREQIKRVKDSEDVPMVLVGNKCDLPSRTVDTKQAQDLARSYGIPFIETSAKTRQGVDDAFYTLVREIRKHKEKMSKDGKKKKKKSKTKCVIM

Row | Structure (SMILES) | IC50 [nM]
1 | Nc1nc2c(-c3c(C(F)(F)F)cc4c(N5CC6CCC(C5)N6)nc(OCC(F)(F)CO)nc4c3F)ccc(F)c2s1 [Example E153, 3-((7-(2-amino-7-fluorobenzo[d]thiazol-4-yl)-4-(3,8-diazabicyclo [3.2.1]octan-3-yl)-8-fluoro-6-(trifluoromethyl)quinazolin-2-yl)oxy)-2,2-difluoropropan-1-ol] | < 50
2 | Nc1nc2c(-c3c(C(F)(F)F)cc4c(N5CC6CCC(C5)N6)nc(OCC5(CO)CCC5)nc4c3F)ccc(F)c2s1 [Example E154, (1-(((7-(2-amino-7-fluorobenzo[d]thiazol-4-yl)-4-(3,8-diazabicyclo[3.2.1]octan-3-yl)-8-fluoro-6-(trifluoromethyl)quinazolin-2-yl)oxy)methyl)cyclobutyl) methanol] | < 50
3 | N#CC1(CCOc2nc(N3CC4CCC(C3)N4)c3cc(C(F)(F)F)c(-c4ccc(F)c5sc(N)nc45)c(F)c3n2)CC1 [Example E155] | < 50
4 | COC1(COc2nc(N3CC4CCC(C3)N4)c3cc(C(F)(F)F)c(-c4ccc(F)c5sc(N)nc45)c(F)c3n2)CC1 [Example E156] | < 50
5 | N#CC1(COc2nc(N3CC4CCC(C3)N4)c3cc(C(F)(F)F)c(-c4ccc(F)c5sc(N)nc45)c(F)c3n2)CCCCC1 [Example E157, 1-(((7-(2-amino-7-fluorobenzo[d]thiazol-4-yl)-4-(3,8-diazabicyclo [3.2.1]octan-3-yl)-8-fluoro-6-(trifluoromethyl)quinazolin-2-yl)oxy)methyl)cyclohexane-1-carbonitrile] | < 50
6 | Nc1nc2c(-c3c(C(F)(F)F)cc4c(N5CC6CCC(C5)N6)nc(OCC5(CO)CC(F)C5)nc4c3F)ccc(F)c2s1 (stereo not drawn) [Example E158, (1-(((7-(2-amino-7-fluorobenzo[d]thiazol-4-yl)-4-(3,8-diazabicyclo[3.2.1]octan-3-yl)-8-fluoro-6-(trifluoromethyl)quinazolin-2-yl)oxy)methyl)-3-fluorocyclobutyl)methanol] | < 50
7 | Nc1nc2c(-c3c(C(F)(F)F)cc4c(N5CC6CCC(C5)N6)nc(OC5CCOCC5F)nc4c3F)ccc(F)c2s1 (stereo not drawn) [Example E159, 4-(4-(3,8-diazabicyclo[3.2.1]octan-3-yl)-8-fluoro-2-((3-fluorotetra hydro-2H-pyran-4-yl)oxy)-6-(trifluoromethyl)quinazolin-7-yl)-7-fluorobenzo[d]thiazol-2-amine] | < 50
8 | Nc1nc2c(-c3c(C(F)(F)F)cc4c(N5CC6CCC(C5)N6)nc(OC5CCS(=O)(=O)CC5)nc4c3F)ccc(F)c2s1 [Example E160] | < 50
9 | Nc1nc2c(-c3c(C(F)(F)F)cc4c(N5CC6CCC(C5)N6)nc(OCCCC5COC5)nc4c3F)ccc(F)c2s1 [Example E161] | < 50
10 | Nc1nc2c(-c3c(C(F)(F)F)cc4c(N5CC6CCC(C5)N6)nc(OCC56CC(CO)(C5)C6)nc4c3F)ccc(F)c2s1 [Example E162, (3-(((7-(2-amino-7-fluorobenzo[d]thiazol-4-yl)-4-(3,8-diazabicyclo[3.2.1]octan-3-yl)-8-fluoro-6-(trifluoromethyl)quinazolin-2-yl)oxy)methyl)bicyclo[1.1.1]pentan-1-yl)methanol] | < 50
11 | Nc1nc2c(-c3c(C(F)(F)F)cc4c(N5CC6CCC(C5)N6)nc(OCC5CC6CCC(C5)O6)nc4c3F)ccc(F)c2s1 (stereo not drawn) [Example E163, 4-(2-((8-oxabicyclo[3.2.1]octan-3-yl)methoxy)-4-(3,8-diazabicyclo[3.2.1]octan-3-yl)-8-fluoro-6-(trifluoromethyl)quinazolin-7-yl)-7-fluorobenzo[d]thiazol-2-amine] | < 50
12 | COC1CC(Oc2nc(N3CC4CCC(C3)N4)c3cc(C(F)(F)F)c(-c4ccc(F)c5sc(N)nc45)c(F)c3n2)C1 (stereo not drawn) [Example E167, 4-(4-(3,8-diazabicyclo[3.2.1]octan-3-yl)-8-fluoro-2-(3-methoxycyclobutoxy)-6-(trifluoromethyl)quinazolin-7-yl)-7-fluorobenzo[d]thiazol-2-amine] | 50 to 100

The remaining lines, values ahead:

Row | IC50 [nM] | Structure (SMILES)
13 | < 50 | CC(=O)N1CC(COc2nc(N3CC4CCC(C3)N4)c3cc(C(F)(F)F)c(-c4ccc(F)c5sc(N)nc45)c(F)c3n2)C1 [Example E164, 1-(3-(((7-(2-amino-7-fluorobenzo[d]thiazol-4-yl)-4-(3,8-diazabicyclo[3.2.1]octan-3-yl)-8-fluoro-6-(trifluoromethyl)quinazolin-2-yl)oxy)methyl)azetidin-1-yl)ethan-1-one]
14 | < 50 | Nc1nc2c(-c3c(C(F)(F)F)cc4c(N5CC6CCC(C5)N6)nc(OCC56CCC(CC5)OC6)nc4c3F)ccc(F)c2s1 [Example E165, 4-(2-((2-oxabicyclo[2.2.2]octan-4-yl)methoxy)-4-(3,8-diazabicyclo[3.2.1]octan-3-yl)-8-fluoro-6-(trifluoromethyl)quinazolin-7-yl)-7-fluorobenzo[d]thiazol-2-amine]
15 | < 50 | CC1(COc2nc(N3CC4CCC(C3)N4)c3cc(C(F)(F)F)c(-c4ccc(F)c5sc(N)nc45)c(F)c3n2)CCO1 (stereo not drawn) [Example E166, 4-(4-(3,8-diazabicyclo[3.2.1]octan-3-yl)-8-fluoro-2-((2-methyloxetan-2-yl)methoxy)-6-(trifluoromethyl)quinazolin-7-yl)-7-fluorobenzo[d]thiazol-2-amine]
16 | < 50 | CO[C@@H]1CC[C@H]1COc1nc(N2CC3CCC(C2)N3)c2cc(C(F)(F)F)c(-c3ccc(F)c4sc(N)nc34)c(F)c2n1 [Example E168, 4-(4-(3,8-diazabicyclo[3.2.1]octan-3-yl)-8-fluoro-2-(((1S,2R)-2-methoxycyclobutyl)methoxy)-6-(trifluoromethyl)quinazolin-7-yl)-7-fluorobenzo[d]thiazol-2-amine]
17 | < 50 | COCC(CO)(COc1nc(N2CC3CCC(C2)N3)c2cc(C(F)(F)F)c(-c3ccc(F)c4sc(N)nc34)c(F)c2n1)OC (stereo not drawn) [Example E169, 3-((7-(2-amino-7-fluorobenzo[d]thiazol-4-yl)-4-(3,8-diazabicyclo [3.2.1]octan-3-yl)-8-fluoro-6-(trifluoromethyl)quinazolin-2-yl)oxy)-2-methoxy-2-(methoxymethyl)propan-1-ol]
18 | < 50 | Nc1nc2c(-c3c(C(F)(F)F)cc4c(N5CC6CCC(C5)N6)nc(OCC5COC(=O)N5)nc4c3F)ccc(F)c2s1 (stereo not drawn) [Example E170, 4-(((7-(2-amino-7-fluorobenzo[d]thiazol-4-yl)-4-(3,8-diazabicyclo [3.2.1]octan-3-yl)-8-fluoro-6-(trifluoromethyl)quinazolin-2-yl)oxy)methyl)oxazolidin-2-one]
19 | < 50 | Nc1nc2c(-c3c(C(F)(F)F)cc4c(N5CC6CCC(C5)N6)nc(OCC5CS(=O)(=O)C5)nc4c3F)ccc(F)c2s1 [Example E171]
20 | < 50 | Nc1nc2c(-c3c(C(F)(F)F)cc4c(N5CC6CCC(C5)N6)nc(OCCC5(CCO)COC5)nc4c3F)ccc(F)c2s1 [Example E172, 2-(3-(2-((7-(2-amino-7-fluorobenzo[d]thiazol-4-yl)-4-(3,8-diazabicyclo[3.2.1]octan-3-yl)-8-fluoro-6-(trifluoromethyl)quinazolin-2-yl)oxy)ethyl)oxetan-3-yl) ethan-1-ol]
21 | < 50 | Nc1nc2c(-c3c(C(F)(F)F)cc4c(N5CC6CCC(C5)N6)nc(OCC5CC(O)C5)nc4c3F)ccc(F)c2s1 (stereo not drawn) [Example E173]
